In PubChem BioAssay (NCI):
Where “and” joins values, the source holds several entries; their conditions need not be identical. Equal values may be shown once.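 Test compounds were applied to cells in 96-well plates for 48 hours at 5 doses. GI50 = concentration required for 50% inhibition of growth. At the TGI there is no net growth.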

Legend:
Assay in all cases: NCI tumour cell line growth inhibition, 48 h
A498 renal = system: A498 renal
SNB-19 CNS = system: SNB-19 CNS
786-0 renal = system: 786-0 renal
RXF 393 renal = system: RXF 393 renal
SNB-78 CNS = system: SNB-78 CNS
XF 498 CNS = system: XF 498 CNS
MALME-3M melanoma = system: MALME-3M melanoma
HCT-116 colon = system: HCT-116 colon
SN12C renal = system: SN12C renal
UO-31 renal = system: UO-31 renal
SK-OV-3 ovarian = system: SK-OV-3 ovarian
DMS 114 small cell lung = system: DMS 114 small cell lung
KM20L2 colon = system: KM20L2 colon
OVCAR-4 ovarian = system: OVCAR-4 ovarian
SF-539 CNS = system: SF-539 CNS
LXFL 529 NSCLC = system: LXFL 529 NSCLC
ACHN renal = system: ACHN renal
SF-295 CNS = system: SF-295 CNS
MDA-MB-435 = system: MDA-MB-435
MCF7 breast = system: MCF7 breast
K-562 leukemia = system: K-562 leukemia
HOP-62 NSCLC = system: HOP-62 NSCLC
SF-268 CNS = system: SF-268 CNS
BT-549 breast = system: BT-549 breast
COLO 205 colon = system: COLO 205 colon
PC-3 prostate = system: PC-3 prostate
OVCAR-3 ovarian = system: OVCAR-3 ovarian
SK-MEL-5 melanoma = system: SK-MEL-5 melanoma
DU-145 prostate = system: DU-145 prostate
NCI-H522 lung = system: NCI-H522 lung
LOX IMVI melanoma = system: LOX IMVI melanoma
NCI-H460 lung = system: NCI-H460 lung
SR leukemia = system: SR leukemia
UACC-62 melanoma = system: UACC-62 melanoma
M14 melanoma = system: M14 melanoma
U251 CNS = system: U251 CNS
M19-MEL melanoma = system: M19-MEL melanoma
UACC-257 melanoma = system: UACC-257 melanoma
HOP-92 NSCLC = system: HOP-92 NSCLC
NCI-H23 lung = system: NCI-H23 lung
SW-620 colon = system: SW-620 colon
MDA-N = system: MDA-N
NCI/ADR-RES ovarian = system: NCI/ADR-RES ovarian
HL-60(TB) leukemia = system: HL-60(TB) leukemia
OVCAR-8 ovarian = system: OVCAR-8 ovarian
NCI-H226 lung = system: NCI-H226 lung
KM12 colon = system: KM12 colon
T-47D breast = system: T-47D breast
HCT-15 colon = system: HCT-15 colon
RPMI-8226 leukemia = system: RPMI-8226 leukemia
SK-MEL-28 melanoma = system: SK-MEL-28 melanoma
HS 578T breast = system: HS 578T breast
SNB-75 CNS = system: SNB-75 CNS
OVCAR-5 ovarian = system: OVCAR-5 ovarian
MOLT-4 leukemia = system: MOLT-4 leukemia
CAKI-1 renal = system: CAKI-1 renal
EKVX NSCLC = system: EKVX NSCLC
HT29 colon = system: HT29 colon
HCC-2998 colon = system: HCC-2998 colon
DMS 273 small cell lung = system: DMS 273 small cell lung
DLD-1 colon = system: DLD-1 colon
IGROV1 ovarian = system: IGROV1 ovarian
SK-MEL-2 melanoma = system: SK-MEL-2 melanoma
CCRF-CEM leukemia = system: CCRF-CEM leukemia
A549 NSCLC = system: A549 NSCLC
TK-10 renal = system: TK-10 renal
HOP-18 NSCLC = system: HOP-18 NSCLC
MDA-MB-231 breast = system: MDA-MB-231 breast
RXF-631 renal = system: RXF-631 renal

SMILES: Cc1ccc(C)c(NC(=O)CC2Sc3ccccc3NC2=O)c1 (configuration not stated)
- GI50 (A498 renal): 15.1 µM and 34 µM
- TGI (A498 renal): 23.7 µM and 60.9 µM
- TGI (SNB-19 CNS): 42.1 µM and 63.8 µM
- TGI (786-0 renal): 30.7 µM and 58.6 µM
- GI50 (RXF 393 renal): 6.39 µM and 14 µM
- TGI (RXF 393 renal): 12.8 µM and 28.4 µM
- TGI (SNB-78 CNS): 28.9 µM and 61.1 µM
- GI50 (XF 498 CNS): 13.7 µM and 29.1 µM
- TGI (XF 498 CNS): 22.7 µM and > 100 µM
- GI50 (MALME-3M melanoma): 27.8 µM and 64.8 µM
- TGI (MALME-3M melanoma): 48.2 µM and > 100 µM
- GI50 (HCT-116 colon): 15.9 µM and 36.9 µM
- TGI (HCT-116 colon): 25.2 µM and > 94.5 µM
- GI50 (SN12C renal): 19.5 µM and 44.7 µM
- TGI (SN12C renal): 33.4 µM and > 88.1 µM
- GI50 (UO-31 renal): 14.5 µM and 30 µM
- TGI (UO-31 renal): 23 µM and 55.7 µM
- TGI (SK-OV-3 ovarian): 38.3 µM and 48.3 µM
- TGI (DMS 114 small cell lung): > 100000 nM
- TGI (KM20L2 colon): > 100000 nM
- GI50 (OVCAR-4 ovarian): 14.8 µM and 31.3 µM
- TGI (OVCAR-4 ovarian): 24 µM and 57.7 µM
- TGI (SF-539 CNS): 41.2 µM and 68.8 µM
- GI50 (LXFL 529 NSCLC): 23 µM and 99 µM
- TGI (LXFL 529 NSCLC): > 100000 nM
- GI50 (ACHN renal): 38.3 µM
- TGI (ACHN renal): > 86500 nM
- TGI (SF-295 CNS): > 100000 nM
- TGI (MDA-MB-435): 85 µM and > 100 µM
- TGI (MCF7 breast): > 100 µM
- TGI (K-562 leukemia): > 100 µM
- TGI (HOP-62 NSCLC): 34.1 µM and 48.1 µM
- TGI (SF-268 CNS): 26.1 µM and 74.2 µM
- GI50 (BT-549 breast): 19.2 µM and 39 µM
- TGI (BT-549 breast): 82.4 µM and > 95.8 µM
- TGI (COLO 205 colon): > 100000 nM
- TGI (PC-3 prostate): > 100 µM
- GI50 (OVCAR-3 ovarian): 14.6 µM and 30.3 µM
- TGI (OVCAR-3 ovarian): 23.7 µM and 58.4 µM
- GI50 (SK-MEL-5 melanoma): 30.3 µM and 91.6 µM
- TGI (SK-MEL-5 melanoma): 43.2 µM and > 100 µM
- TGI (DU-145 prostate): > 100 µM
- GI50 (NCI-H522 lung): 21.7 µM and 45.6 µM
- TGI (NCI-H522 lung): 60.6 µM and > 93.8 µM
- GI50 (LOX IMVI melanoma): 34.5 µM and > 81.5 µM
- TGI (LOX IMVI melanoma): > 100 µM
- GI50 (NCI-H460 lung): 33.6 µM and > 74.1 µM
- TGI (NCI-H460 lung): > 100 µM
- TGI (SR leukemia): > 100000 nM
- TGI (UACC-62 melanoma): > 100 µM
- TGI (M14 melanoma): > 100 µM
- TGI (U251 CNS): 25.4 µM and 52.2 µM
- GI50 (M19-MEL melanoma): 37 µM and > 100 µM
- TGI (M19-MEL melanoma): > 100000 nM
- TGI (UACC-257 melanoma): > 97.1 µM
- TGI (HOP-92 NSCLC): 16.9 µM and 42.5 µM
- GI50 (NCI-H23 lung): 17.8 µM and 47.3 µM
- TGI (NCI-H23 lung): 38.4 µM and > 96.2 µM
- GI50 (SW-620 colon): 26.2 µM and > 77.1 µM
- TGI (SW-620 colon): > 100 µM
- GI50 (MDA-N): 22.1 µM and > 65.6 µM
- TGI (MDA-N): > 100 µM
- TGI (NCI/ADR-RES ovarian): > 74.3 µM
- TGI (HL-60(TB) leukemia): > 100 µM
- TGI (OVCAR-8 ovarian): 27 µM and 45.3 µM
- GI50 (NCI-H226 lung): 15.9 µM and 37.2 µM
- TGI (NCI-H226 lung): 28.6 µM and 67.2 µM
- GI50 (KM12 colon): 22.7 µM and > 100 µM
- TGI (KM12 colon): > 100 µM
- GI50 (T-47D breast): 17.4 µM and > 63.1 µM
- TGI (T-47D breast): 83.9 µM and > 100 µM
- TGI (HCT-15 colon): > 100 µM
- TGI (RPMI-8226 leukemia): > 100000 nM
- GI50 (SK-MEL-28 melanoma): 34.9 µM and > 100 µM
- TGI (SK-MEL-28 melanoma): 54.7 µM and > 100 µM
- TGI (HS 578T breast): > 75.2 µM
- TGI (SNB-75 CNS): 18.8 µM and 29.8 µM
- GI50 (OVCAR-5 ovarian): 46.5 µM and > 100 µM
- TGI (OVCAR-5 ovarian): > 100000 nM
- TGI (MOLT-4 leukemia): > 100000 nM
- GI50 (CAKI-1 renal): 18.9 µM and 45.2 µM
- TGI (CAKI-1 renal): 33.1 µM and 99.1 µM
- TGI (EKVX NSCLC): > 100 µM
- GI50 (HT29 colon): 31.4 µM and > 100 µM
- TGI (HT29 colon): > 100000 nM
- GI50 (HCC-2998 colon): 19 µM and 61.9 µM
- TGI (HCC-2998 colon): 34.8 µM and > 100 µM
- GI50 (DMS 273 small cell lung): 23.1 µM and 97 µM
- TGI (DMS 273 small cell lung): > 100 µM
- GI50 (DLD-1 colon): > 93.6 µM
- TGI (DLD-1 colon): > 100 µM
- TGI (IGROV1 ovarian): 36.6 µM and > 76.3 µM
- TGI (SK-MEL-2 melanoma): > 100 µM
- TGI (CCRF-CEM leukemia): > 100000 nM
- GI50 (A549 NSCLC): 24.9 µM and 70.8 µM
- TGI (A549 NSCLC): > 100 µM
- GI50 (TK-10 renal): 18.3 µM and 41.9 µM
- TGI (TK-10 renal): 35.5 µM and > 87.3 µM
- TGI (HOP-18 NSCLC): 36 µM and 70 µM
- GI50 (MDA-MB-231 breast): 5.08 µM and 34.8 µM
- TGI (MDA-MB-231 breast): 28.9 µM and > 65.6 µM

SMILES: CCC(=O)OC[n+]1ccc2c(C)c3[nH]c4ccccc4c3c(C)c2c1
- TGI (DMS 114 small cell lung): 1950 nM
- TGI (KM20L2 colon): 2300 nM
- TGI (LXFL 529 NSCLC): 1780 nM
- TGI (ACHN renal): 1760 nM
- TGI (SF-295 CNS): 1880 nM
- TGI (COLO 205 colon): 1550 nM
- TGI (OVCAR-3 ovarian): 2.68 µM
- TGI (SK-MEL-5 melanoma): 2.51 µM
- TGI (SR leukemia): 553 nM
- TGI (M19-MEL melanoma): 2000 nM
- TGI (HOP-92 NSCLC): 2.34 µM
- TGI (HL-60(TB) leukemia): 6.18 µM
- TGI (RPMI-8226 leukemia): 2200 nM
- TGI (RXF-631 renal): 1910 nM
- TGI (SNB-75 CNS): 2.55 µM
- TGI (OVCAR-5 ovarian): 1910 nM
- TGI (MOLT-4 leukemia): 725 nM
- TGI (HT29 colon): 2360 nM
- TGI (CCRF-CEM leukemia): 2680 nM
- TGI (TK-10 renal): 3.18 µM
- TGI (HOP-18 NSCLC): 0.701 µM
